For two molecules, residual activity, inhibition and Kd results are on record in ChEMBL document CHEMBL5303763, “Data for DCP probe BI-3802” (2023).

The target in assay [1] is Tyrosine-protein kinase ABL1 (Homo sapiens) (UniProt P00519). Nature of the assay: ABL1 Invitrogen Lab (UK) kinase screen (BI). The conditions noted are these: Compound concentration 1.0 uM.
Assay [2] addresses RAC-beta serine/threonine-protein kinase (Homo sapiens) (UniProt P31751). The assay is described as follows: AKT2 Invitrogen Lab (UK) kinase screen (BI). The conditions noted are these: Compound concentration 1.0 uM.
Assay [3] addresses Aurora kinase B (Homo sapiens) (UniProt Q96GD4). The assay is described as follows: AURKB Invitrogen Lab (UK) kinase screen (BI). The conditions noted are these: Compound concentration 1.0 uM.
In assay [4] the target is Serine/threonine-protein kinase Chk1 (Homo sapiens) (UniProt O14757). Nature of the assay: CHEK1 Invitrogen Lab (UK) kinase screen (BI). The conditions noted are these: Compound concentration 1.0 uM.
The target in assay [5] is Serine/threonine-protein kinase Chk2 (Homo sapiens) (UniProt O96017). Nature of the assay: CHEK2 Invitrogen Lab (UK) kinase screen (BI). The conditions noted are these: Compound concentration 1.0 uM.
Assay [6] has as its target Dual specificity protein kinase CLK1 (Homo sapiens) (UniProt P49759). The assay is described as follows: CLK1 Invitrogen Lab (UK) kinase screen (BI). The conditions noted are these: Compound concentration 1.0 uM.
Assay [7] has as its target Casein kinase I isoform alpha (Homo sapiens) (UniProt P48729). Nature of the assay: CSNK1A1 Invitrogen Lab (UK) kinase screen (BI). The conditions noted are these: Compound concentration 1.0 uM.
Assay [8] deals with Epidermal growth factor receptor (Homo sapiens) (UniProt P00533). Nature of the assay: EGFR Invitrogen Lab (UK) kinase screen (BI). The conditions noted are these: Compound concentration 1.0 uM.
Chain of Epidermal growth factor receptor (Homo sapiens) (P00533 whole entry): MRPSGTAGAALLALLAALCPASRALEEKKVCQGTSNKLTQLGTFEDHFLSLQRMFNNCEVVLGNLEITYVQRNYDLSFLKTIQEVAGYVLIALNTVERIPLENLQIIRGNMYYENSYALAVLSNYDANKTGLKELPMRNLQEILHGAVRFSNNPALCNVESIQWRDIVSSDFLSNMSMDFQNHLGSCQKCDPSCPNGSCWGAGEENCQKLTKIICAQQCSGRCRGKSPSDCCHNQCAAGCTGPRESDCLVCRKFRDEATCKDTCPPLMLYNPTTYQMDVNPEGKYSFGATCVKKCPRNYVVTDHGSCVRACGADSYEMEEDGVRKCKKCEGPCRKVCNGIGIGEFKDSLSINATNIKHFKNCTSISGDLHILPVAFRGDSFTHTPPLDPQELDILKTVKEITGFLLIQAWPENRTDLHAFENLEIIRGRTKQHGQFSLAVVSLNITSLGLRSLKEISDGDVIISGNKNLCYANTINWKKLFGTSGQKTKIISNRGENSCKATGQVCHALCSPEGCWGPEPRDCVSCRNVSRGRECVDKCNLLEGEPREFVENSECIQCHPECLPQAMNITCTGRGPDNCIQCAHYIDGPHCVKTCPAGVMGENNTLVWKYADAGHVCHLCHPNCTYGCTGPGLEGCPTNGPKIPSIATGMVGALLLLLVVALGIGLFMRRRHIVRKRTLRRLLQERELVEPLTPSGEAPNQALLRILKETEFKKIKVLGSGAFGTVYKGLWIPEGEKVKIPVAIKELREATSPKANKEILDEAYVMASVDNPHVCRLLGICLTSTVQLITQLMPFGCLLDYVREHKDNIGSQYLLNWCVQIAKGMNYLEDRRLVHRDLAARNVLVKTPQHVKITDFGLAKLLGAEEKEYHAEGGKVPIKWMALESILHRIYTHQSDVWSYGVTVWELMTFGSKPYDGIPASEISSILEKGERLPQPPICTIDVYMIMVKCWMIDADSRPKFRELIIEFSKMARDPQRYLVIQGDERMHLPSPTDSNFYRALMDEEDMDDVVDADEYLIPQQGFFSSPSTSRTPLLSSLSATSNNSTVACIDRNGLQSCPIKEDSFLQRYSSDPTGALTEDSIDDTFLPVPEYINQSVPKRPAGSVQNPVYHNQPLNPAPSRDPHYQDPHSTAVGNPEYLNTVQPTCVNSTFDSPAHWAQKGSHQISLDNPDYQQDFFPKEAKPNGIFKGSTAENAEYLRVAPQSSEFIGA
Assay [9] addresses Glycogen synthase kinase-3 beta (Homo sapiens) (UniProt P49841). Nature of the assay: GSK3B Invitrogen Lab (UK) kinase screen (BI). The conditions noted are these: Compound concentration 1.0 uM.
Assay [10] addresses Interleukin-1 receptor-associated kinase 4 (Homo sapiens) (UniProt Q9NWZ3). Nature of the assay: IRAK4 Invitrogen Lab (UK) kinase screen (BI). The conditions noted are these: Compound concentration 1.0 uM.
The target in assay [11] is Vascular endothelial growth factor receptor 2 (Homo sapiens) (UniProt P35968). The assay is described as follows: KDR Invitrogen Lab (UK) kinase screen (BI). The conditions noted are these: Compound concentration 1.0 uM.
Assay [12] has as its target Tyrosine-protein kinase Lyn (Homo sapiens) (UniProt P07948). The assay is described as follows: LYN A Invitrogen Lab (UK) kinase screen (BI). The conditions noted are these: Compound concentration 1.0 uM.
The target of assay [13] is Mitogen-activated protein kinase 14 (Homo sapiens) (UniProt Q16539). Nature of the assay: MAPK14 Invitrogen Lab (UK) kinase screen (BI). The conditions noted are these: Compound concentration 1.0 uM.
The target in assay [14] is Mitogen-activated protein kinase 8 (Homo sapiens) (UniProt P45983). Nature of the assay: MAPK8 Invitrogen Lab (UK) kinase screen (BI). The conditions noted are these: Compound concentration 1.0 uM.
Assay [15] deals with Myosin light chain kinase 2, skeletal/cardiac muscle (Homo sapiens) (UniProt Q9H1R3). Nature of the assay: MYLK2 Invitrogen Lab (UK) kinase screen (BI). The conditions noted are these: Compound concentration 1.0 uM.
Assay [16] addresses BDNF/NT-3 growth factors receptor (Homo sapiens) (UniProt Q16620). Nature of the assay: NTRK2 Invitrogen Lab (UK) kinase screen (BI). The conditions noted are these: Compound concentration 1.0 uM.
For assay [17], the target named is Serine/threonine-protein kinase PAK 4 (Homo sapiens) (UniProt O96013). Nature of the assay: PAK4 Invitrogen Lab (UK) kinase screen (BI). The conditions noted are these: Compound concentration 1.0 uM.
The target in assay [18] is Phosphatidylinositol 4,5-bisphosphate 3-kinase catalytic subunit gamma isoform (Homo sapiens) (UniProt P48736). The assay is described as follows: PIK3CG Invitrogen Lab (UK) kinase screen (BI). The conditions noted are these: Compound concentration 1.0 uM.
Assay [19] has as its target Protein kinase C alpha type (Homo sapiens) (UniProt P17252). The assay is described as follows: PRKCA Invitrogen Lab (UK) kinase screen (BI). The conditions noted are these: Compound concentration 1.0 uM.
Assay [20] has as its target Rho-associated protein kinase 2 (Homo sapiens) (UniProt O75116). The assay is described as follows: ROCK2 Invitrogen Lab (UK) kinase screen (BI). The conditions noted are these: Compound concentration 1.0 uM.
Assay [21] addresses Ribosomal protein S6 kinase alpha-4 (Homo sapiens) (UniProt O75676). Nature of the assay: RPS6KA4 Invitrogen Lab (UK) kinase screen (BI). The conditions noted are these: Compound concentration 1.0 uM.
In assay [22] the target is Proto-oncogene tyrosine-protein kinase Src (Homo sapiens) (UniProt P12931). The assay is described as follows: SRC Invitrogen Lab (UK) kinase screen (BI). The conditions noted are these: Compound concentration 1.0 uM.
For assay [23], the target named is SRSF protein kinase 2 (Homo sapiens) (UniProt P78362). Nature of the assay: SRPK2 Invitrogen Lab (UK) kinase screen (BI). The conditions noted are these: Compound concentration 1.0 uM.
Assay [24] has as its target T1, 5-hydroxytryptamine receptor 3A (Homo sapiens) (UniProt P46098).
T1 sequence (whole entry): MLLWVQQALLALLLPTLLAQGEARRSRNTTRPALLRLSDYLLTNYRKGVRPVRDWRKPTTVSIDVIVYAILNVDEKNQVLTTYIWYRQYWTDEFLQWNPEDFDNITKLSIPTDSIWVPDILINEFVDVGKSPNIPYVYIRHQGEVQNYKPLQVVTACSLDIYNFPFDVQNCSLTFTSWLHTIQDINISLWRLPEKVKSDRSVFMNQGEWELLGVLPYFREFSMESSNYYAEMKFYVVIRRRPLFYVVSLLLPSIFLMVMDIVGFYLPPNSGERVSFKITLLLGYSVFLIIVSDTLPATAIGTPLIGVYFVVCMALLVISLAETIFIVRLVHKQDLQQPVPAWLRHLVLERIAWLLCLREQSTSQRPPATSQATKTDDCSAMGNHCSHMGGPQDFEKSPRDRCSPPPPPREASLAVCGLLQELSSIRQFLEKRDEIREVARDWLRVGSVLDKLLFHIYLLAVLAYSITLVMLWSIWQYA
The conditions noted are these: Compound concentration 10.0 uM.

In assay [25] the target is Mu-type opioid receptor (Homo sapiens) (UniProt P35372). The conditions noted are these: Compound concentration 10.0 uM.
Chain of Mu-type opioid receptor (Homo sapiens) (P35372 whole entry): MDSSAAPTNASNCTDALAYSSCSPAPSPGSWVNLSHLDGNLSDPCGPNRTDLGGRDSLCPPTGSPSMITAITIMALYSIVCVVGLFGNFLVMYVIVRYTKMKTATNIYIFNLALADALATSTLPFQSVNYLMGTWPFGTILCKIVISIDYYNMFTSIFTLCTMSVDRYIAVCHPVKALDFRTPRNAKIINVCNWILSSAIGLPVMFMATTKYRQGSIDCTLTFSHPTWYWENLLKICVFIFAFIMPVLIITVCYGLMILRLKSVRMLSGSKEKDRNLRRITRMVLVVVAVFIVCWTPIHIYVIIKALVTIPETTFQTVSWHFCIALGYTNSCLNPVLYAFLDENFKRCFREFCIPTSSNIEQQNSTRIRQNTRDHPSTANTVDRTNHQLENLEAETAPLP
In assay [26] the target is Beta-2 adrenergic receptor (Homo sapiens) (UniProt P07550). The conditions noted are these: Compound concentration 10.0 uM.
Chain of Beta-2 adrenergic receptor (Homo sapiens) (P07550 whole entry, looked up): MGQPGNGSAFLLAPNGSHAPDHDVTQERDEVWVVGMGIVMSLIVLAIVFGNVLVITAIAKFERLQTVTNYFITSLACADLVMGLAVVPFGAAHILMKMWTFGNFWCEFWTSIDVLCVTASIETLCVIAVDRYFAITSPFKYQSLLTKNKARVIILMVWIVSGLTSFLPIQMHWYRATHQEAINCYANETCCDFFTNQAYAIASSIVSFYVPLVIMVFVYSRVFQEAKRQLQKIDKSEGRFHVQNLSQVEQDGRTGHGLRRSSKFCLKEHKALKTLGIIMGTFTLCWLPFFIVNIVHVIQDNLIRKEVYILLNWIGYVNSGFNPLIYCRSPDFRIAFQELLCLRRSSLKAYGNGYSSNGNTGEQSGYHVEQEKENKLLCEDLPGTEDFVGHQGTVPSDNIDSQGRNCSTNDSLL
In assay [27] the target is T2, Muscarinic acetylcholine receptor M2 (Homo sapiens) (UniProt P08172).
T2 sequence (whole entry): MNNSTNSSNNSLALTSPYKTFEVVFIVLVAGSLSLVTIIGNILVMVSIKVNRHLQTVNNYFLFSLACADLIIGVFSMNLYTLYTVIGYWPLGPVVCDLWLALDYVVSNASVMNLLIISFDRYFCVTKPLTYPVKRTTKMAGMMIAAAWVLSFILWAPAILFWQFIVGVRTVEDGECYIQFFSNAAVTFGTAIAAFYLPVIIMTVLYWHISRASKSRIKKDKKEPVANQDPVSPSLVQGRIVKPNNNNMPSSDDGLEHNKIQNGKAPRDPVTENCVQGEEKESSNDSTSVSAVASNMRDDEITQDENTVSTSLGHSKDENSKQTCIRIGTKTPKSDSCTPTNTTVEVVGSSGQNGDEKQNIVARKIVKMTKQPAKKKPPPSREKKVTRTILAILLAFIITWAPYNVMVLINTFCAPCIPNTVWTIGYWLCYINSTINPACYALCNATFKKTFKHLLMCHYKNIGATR
The conditions noted are these: Compound concentration 10.0 uM.

The target of assay [28] is GABA-A receptor; anion channel (Rattus norvegicus) (UniProt O09028+P15431+P18506+P18508+P19969+P20236+P23574+P23576+P28471+P28473+P30191+P62813+P63079+P63138+Q91ZM7+Q9ES14). The conditions noted are these: Compound concentration 10.0 uM.
For assay [29], the target named is B-cell lymphoma 6 protein (Homo sapiens, UniProt P41182). The assay is described as follows: SPR (BCL6), Ontario institute for cancer research.
The target of assay [30] is Zinc finger and BTB domain-containing protein 17 (Homo sapiens, UniProt Q13105). The assay is described as follows: SPR (ZBTB17), Ontario institute for cancer research.

Chain of Tyrosine-protein kinase ABL1 (Homo sapiens) (P00519 whole entry): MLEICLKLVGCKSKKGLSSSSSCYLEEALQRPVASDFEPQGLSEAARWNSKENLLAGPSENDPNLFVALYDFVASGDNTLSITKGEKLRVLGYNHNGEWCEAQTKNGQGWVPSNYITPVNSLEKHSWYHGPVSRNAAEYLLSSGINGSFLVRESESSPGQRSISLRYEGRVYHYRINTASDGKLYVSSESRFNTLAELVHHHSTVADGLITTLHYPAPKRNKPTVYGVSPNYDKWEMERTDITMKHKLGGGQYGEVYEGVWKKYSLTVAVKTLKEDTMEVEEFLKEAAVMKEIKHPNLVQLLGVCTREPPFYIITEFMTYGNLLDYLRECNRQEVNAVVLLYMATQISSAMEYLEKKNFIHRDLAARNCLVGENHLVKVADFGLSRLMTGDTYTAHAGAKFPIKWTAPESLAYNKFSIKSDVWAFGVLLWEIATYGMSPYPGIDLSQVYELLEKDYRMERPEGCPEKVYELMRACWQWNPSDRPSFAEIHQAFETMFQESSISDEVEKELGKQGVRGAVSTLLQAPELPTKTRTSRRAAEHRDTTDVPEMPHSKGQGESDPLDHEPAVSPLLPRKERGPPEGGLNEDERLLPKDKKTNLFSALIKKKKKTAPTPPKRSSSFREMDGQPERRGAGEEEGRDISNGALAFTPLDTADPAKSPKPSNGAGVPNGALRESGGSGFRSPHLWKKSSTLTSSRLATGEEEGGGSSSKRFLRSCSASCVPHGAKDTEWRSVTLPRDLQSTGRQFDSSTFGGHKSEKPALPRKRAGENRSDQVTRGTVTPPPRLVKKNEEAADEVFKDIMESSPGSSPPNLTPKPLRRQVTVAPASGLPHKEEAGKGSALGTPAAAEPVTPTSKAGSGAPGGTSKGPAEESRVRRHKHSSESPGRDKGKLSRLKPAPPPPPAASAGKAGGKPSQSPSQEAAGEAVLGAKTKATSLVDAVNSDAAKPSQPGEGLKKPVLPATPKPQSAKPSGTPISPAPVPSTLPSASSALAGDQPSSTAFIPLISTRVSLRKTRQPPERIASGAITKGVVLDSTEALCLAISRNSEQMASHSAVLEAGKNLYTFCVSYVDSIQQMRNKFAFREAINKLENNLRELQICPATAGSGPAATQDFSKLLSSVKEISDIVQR
Chain of RAC-beta serine/threonine-protein kinase (Homo sapiens) (P31751 whole entry): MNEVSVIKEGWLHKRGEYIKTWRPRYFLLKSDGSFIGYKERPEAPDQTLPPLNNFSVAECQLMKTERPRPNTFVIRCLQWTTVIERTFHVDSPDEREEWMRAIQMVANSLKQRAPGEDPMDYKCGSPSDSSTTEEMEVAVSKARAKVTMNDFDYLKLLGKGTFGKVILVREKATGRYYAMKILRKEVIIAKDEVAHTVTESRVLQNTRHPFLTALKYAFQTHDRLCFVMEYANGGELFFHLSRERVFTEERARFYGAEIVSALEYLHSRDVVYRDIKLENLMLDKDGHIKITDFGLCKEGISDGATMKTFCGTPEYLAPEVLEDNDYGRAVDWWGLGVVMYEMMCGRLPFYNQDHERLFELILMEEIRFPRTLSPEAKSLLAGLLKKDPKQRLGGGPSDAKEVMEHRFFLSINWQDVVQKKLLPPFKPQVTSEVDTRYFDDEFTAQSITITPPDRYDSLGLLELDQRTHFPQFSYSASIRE
Chain of Glycogen synthase kinase-3 beta (Homo sapiens) (P49841 whole entry, looked up): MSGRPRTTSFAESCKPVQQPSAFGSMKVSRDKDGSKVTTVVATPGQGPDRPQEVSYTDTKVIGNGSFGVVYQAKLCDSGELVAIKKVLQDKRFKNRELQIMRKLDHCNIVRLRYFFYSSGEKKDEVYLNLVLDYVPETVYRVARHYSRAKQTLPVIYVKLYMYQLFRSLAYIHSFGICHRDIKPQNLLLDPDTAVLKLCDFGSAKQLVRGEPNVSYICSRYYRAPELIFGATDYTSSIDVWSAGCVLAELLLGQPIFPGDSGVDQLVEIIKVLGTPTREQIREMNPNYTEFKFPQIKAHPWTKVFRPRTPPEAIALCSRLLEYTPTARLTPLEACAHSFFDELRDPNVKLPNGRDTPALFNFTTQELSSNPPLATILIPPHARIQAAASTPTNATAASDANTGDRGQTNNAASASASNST

In the case of `CNC(=O)COc1cc2cc(Nc3nc(N4C[C@H](C)C[C@H](C)C4)ncc3Cl)ccc2n(C)c1=O`, the residual activity in [1] was 103%; in [2], 96%; in [3] it was 97%; in [4], 89%; in assay [5], 96%; in [6], 107%. In addition, the residual activity was 93% in assay [7]; 88% in [8]; 93% in assay [9]; 90% in [10]; 111% in assay [11]; 104% in assay [12]. Further, the residual activity in assay [13] is 100%; in assay [14] it was 120%; in [15], 90%; in assay [16] it was 99%; in assay [17], 94%; in [18], 95%. The residual activity in assay [19] was 113%; in [20] it was 100%; in [21] it was 99%; in assay [22] it was 105%; in [23], 106%. Also, the inhibition in assay [24] was 12.5%; in assay [25], 24.5%; in assay [26], -8.13%; in assay [27], -5.1%; in [28], 20.9%.

Turning to `C[C@@H]1C[C@H](C)CN(c2ncc(Cl)c(Nc3ccc4c(c3)cc(OC(C)(C)C(=O)O)c(=O)n4C)n2)C1`, the dissociation constant Kd in [29] was 1410 nM (not active); in assay [30], “No binding”.
